{"source": "patent US9486519B2", "about": "“Use of FLT3 ligand for enhancing immune responses in RNA immunization” (BioNTech AG, priority 2008, dated 2016)", "key": {"[1]": {"test_system": "human iDCs", "test": "RNA uptake by human iDCs pretreated with macropinocytosis inhibitors, luciferase test", "assay_type": "cell-based", "settings": "15 min luciferase-RNA or Cy3-RNA", "method": "(b-c) Human iDCs were pretreated with various inhibitors (dimethyl amiloride, cytochalasin D, LY294002, Rottlerin) and then coincubated for 15 min with luciferase-RNA or Cy3-RNA. After 24 h the luciferase signal was quantified in a standard luminescence test.\nTo verify whether the macropinocytosis constitutively active in iDCs is relevant for the uptake of naked RNA, human iDCs were pretreated with various inhibitors (dimethyl amiloride, cytochalasin D, LY294002, Rottlerin) and then coincubated for 15 min with luciferase-RNA or Cy3-RNA. After culture for a further 22 h, RNA uptake was quantified in a luciferase test. The mean+SEM is shown. The iDCs coincubated with Cy3-RNA (red) were fixed with paraformaldehyde and counterstained (Hoechst 33342, blue). […] FIG. 6(b-c)."}, "[2]": {"test_system": "macropinocytosis", "test": "RNA uptake in lymph nodes after in vivo Rottlerin pretreatment, in-vivo bioluminescence", "parameters": "species or system C57Bl/6 mice", "settings": "inguinal lymph nodes pretreated with 10 μM; luciferase-RNA 10 μg intranodally; 24 h", "method": "To clarify whether macropinocytosis is also the uptake mechanism relevant in vivo for RNA in the lymph node, the inguinal lymph nodes of C57/B16 mice were pretreated with Rottlerin (n=4, 10 μM) and then luciferase-RNA (10 μg) was injected intranodally. After 24 h, the in-vivo bioluminescence signal was measured."}, "[3]": {"test_system": "macropinocytosis", "test": "Intranodal RNA immunization after Rottlerin pretreatment of lymph nodes, tetramer measurement", "assay_type": "in vivo, C57Bl/6 mice", "settings": "SIINFEKL-coding RNA 20 μg intranodally d0 and d3; lymph nodes pretreated", "method": "(e) C57Bl/6 mice (n=3) were immunized intranodally on d0 and d3 with […]-coding RNA (20 μg). On both days the lymph nodes were pretreated with Rottlerin as described above. On day 8 the success of immunization was quantified by tetramer measurement in the peripheral blood. The success of intranodal RNA immunization correlated directly with the ability of cells to take up RNA by macropinocytosis.\nTo verify whether the in vivo inhibition of macropinocytosis has an effect on the efficiency of T cell priming after intranodal RNA immunization, C57/B16 mice (n=3) were immunized intranodally on d0 and d3 with […]-coding RNA (20 μg). On both days the lymph nodes were pretreated with Rottlerin as described above. The mean+SEM of the frequency of CD8+ antigen-specific T lymphocytes is shown. […] FIG. 6(e).\nThe main uptake mechanism of RNA uptake is macropinocytosis."}, "[4]": {"test_system": "RNA uptake in the lymph nodes", "test": "Effect of Poly I:C on RNA uptake in lymph nodes, in-vivo bioluminescence", "parameters": "species or system C57Bl/6 mice", "settings": "20 μg s.c.; luciferase-RNA intranodally after 2 or 24 h", "method": "(e) Effect of Poly I:C on RNA uptake. C57Bl/6 mice (n=4) were injected s.c. with PBS or Poly I:C (20 μg) and after 2 or 24 h, luciferase-RNA was applied intranodally. After 24 h the luciferase signal was quantified in a standard bioluminescence test.\nIn order to verify to what extent maturing adjuvants can also lead in vivo to a reduction of RNA uptake, we tested the effect of Poly I:C on RNA uptake; cf. FIG. 7(e). For this, C57/Bl6 mice (n=4) were injected s.c. with PBS or Poly I:C (20 μg) and after 2 or 24 h, luciferase-RNA was applied intranodally. The in-vivo bioluminescence was measured after a further 24 h. The mean+SEM is shown."}, "[5]": {"test_system": "cell populations of the murine lymph node", "test": "Effects of different Flt3L on the cellular composition in lymph nodes", "assay_type": "in vivo, C57BL/6 mice", "settings": "0.4 mol i.p. day 0; lymph nodes day 10", "excerpt": "On day 10 the lymph nodes of the mice were removed and characterized by flow cytometry. Dendritic cells (DCs (marker: CD11c^+/NK1.1^−)), CD4^+ helper T cells (marker: CD3^+/CD4^+/CD8^−/NK1.1^−), CD8^+ T cells (marker: CD3^+/CD8^+/CD4^−/NK1.1^−), CD19^+ B cells (marker: CD19^+/CD3^−/NK1.1^−).\nIn this experiment Flt3 ligand (Flt3-IgG4) was compared with commercially available Flt3 preparations with respect to the effect on different cell populations of the murine lymph node. A product recombinantly expressed in bacteria (Peprotech Flt3L; Peprotech, Hamburg, Germany) and a product expressed in human HEK293 cells (Humanzyme Flt3L, Humanzyme; Chicago Ill., U.S.A.) were used as commercially available Flt3 preparations. Human IgG4 (Sigma-Aldrich, Deisenhofen, Germany) served as control.\nOn day 10 both inguinal lymph nodes of the mice were removed, the cell count determined by means of a Neubauer chamber and the cell populations were characterized by flow cytometry."}, "[6]": {"settings": "Robinson et al., 2003; cited from earlier work"}}, "data": [{"molecule": "CC(=O)c1c(O)c(C)c(O)c(Cc2c(O)c3c(c(C(=O)/C=C/c4ccccc4)c2O)OC(C)(C)C=C3)c1O", "note": "[Rottlerin]", "values": [{"measurement": "inhibition of RNA uptake", "setting": "[1]", "result": "more than 90%"}, {"measurement": "RNA uptake in the lymph node", "setting": "[2]", "result": "drastically reduced"}, {"measurement": "vaccine action after inhibition of macropinocytosis", "setting": "[3]", "result": "almost complete loss of vaccine action"}]}, {"molecule": "Poly I:C", "values": [{"measurement": "RNA uptake (in-vivo bioluminescence)", "setting": "[4]", "result": "sharp reduction in RNA uptake"}]}, {"molecule": "Flt3L (Humanzyme): commercially available Flt3 preparation expressed in human HEK293 cells (Humanzyme) (protein, UniProt P49771 27-235, looked up) Fms-related tyrosine kinase 3 …: TQDCSFQHSPISSDFAVKIRELSDYLLQDYPVTVASNLQDEELCGGLWRLVLAQRWMERLKTVAGSKMQGLLERVNTEIHFVTKCAFQPPPSCLRFVQTNISRLLQETSEQLVALKPWITRQNFSRCLELQCQPDSSTLPPPWSPRPLEATAPTAPQPPLLLLLLLPVGLLLLAAAWCLHWQRTRRRTPRPGEQVPPVPSPQDLLLVEH", "values": [{"measurement": "expansion of dendritic cells", "setting": "[5]", "result": "strong similarity"}]}, {"molecule": "Flt3L without IgG4 fusion: Flt3L without IgG4 fusion, published half-life value (Robinson et al., 2003) (protein, UniProt P49771 27-235, looked up) Fms-related tyrosine kinase 3 …: TQDCSFQHSPISSDFAVKIRELSDYLLQDYPVTVASNLQDEELCGGLWRLVLAQRWMERLKTVAGSKMQGLLERVNTEIHFVTKCAFQPPPSCLRFVQTNISRLLQETSEQLVALKPWITRQNFSRCLELQCQPDSSTLPPPWSPRPLEATAPTAPQPPLLLLLLLPVGLLLLAAAWCLHWQRTRRRTPRPGEQVPPVPSPQDLLLVEH", "values": [{"measurement": "published value for the half-life", "setting": "[6]", "result": 5, "unit": "h"}]}, {"molecule": "Flt3L (Peprotech): commercially available Flt3 preparation recombinantly expressed in bacteria (Peprotech) (protein, UniProt P49771 27-235, looked up) Fms-related tyrosine kinase 3 …: TQDCSFQHSPISSDFAVKIRELSDYLLQDYPVTVASNLQDEELCGGLWRLVLAQRWMERLKTVAGSKMQGLLERVNTEIHFVTKCAFQPPPSCLRFVQTNISRLLQETSEQLVALKPWITRQNFSRCLELQCQPDSSTLPPPWSPRPLEATAPTAPQPPLLLLLLLPVGLLLLAAAWCLHWQRTRRRTPRPGEQVPPVPSPQDLLLVEH", "values": [{"measurement": "expansion of dendritic cells", "setting": "[5]", "result": "only slightly potent"}]}]}
